pIC50: −log10 of the molar value.
Test system: 993429-296-R-J1-PDC complex spheroid growth, percent test/control
Assay: Anticancer human tumor 993429-296-R-J1-PDC patient-derived uterine sarcoma cell line growth inhibition [Asc]
Conditions: for pIC50: curve of first compound; for viability, T/C: stronger effect = lower value
Summary of the method: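 Complex spheroids combining tumor cells with HUVEC endothelial cells and human MSCs, at 37 degrees C, 5% CO2; agents tested alone or combined, half-log dilutions from at or near clinical Cmax, or 10 microM if Cmax unknown.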
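Note: spheroids exposed to compounds for seven days.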

For `C=CC(=O)N1CCN(c2nc(=O)n(-c3c(C)ccnc3C(C)C)c3nc(-c4c(O)cccc4F)c(F)cc23)C(C)C1` (stereo not given) + CCN1C(C(=O)NC23CCC(C(=O)O)(CC2)CC3)C(c2cccc(Cl)c2F)C2(C(=O)Nc3cc(Cl)ccc32)C12CCCCC2, the pIC50 (second compound 0.03 µM) was under 5.00, the pIC50 (second compound 0.0949 µM) was under 5.00 and the pIC50 (second compound 0.3 µM) was under 5.00. The pIC50 (second compound 0.949 µM) was under 5.00, the pIC50 (second compound 3 µM) was under 5.00 and the viability, T/C (second compound 0.03 µM, first compound 0.0316 µM) was 96.1%. It also gave a viability, T/C (second compound 0.03 µM, first compound 0.1 µM) of 101%, a viability, T/C (second compound 0.03 µM, first compound 0.316 µM) of 108% and a viability, T/C (second compound 0.03 µM, first compound 1 µM) of 86.2%. It also gave a viability, T/C (second compound 0.03 µM, first compound 3.16 µM) of 114%, a viability, T/C (second compound 0.03 µM, first compound 10 µM) of 76.1% and a viability, T/C (second compound 0.0949 µM, first compound 0.0316 µM) of 102%. For the same molecule, the viability, T/C (second compound 0.0949 µM, first compound 0.1 µM) was 106%, the viability, T/C (second compound 0.0949 µM, first compound 0.316 µM) was 103% and the viability, T/C (second compound 0.0949 µM, first compound 1 µM) was 106%. It also gave a viability, T/C (second compound 0.0949 µM, first compound 3.16 µM) of 96.5%, a viability, T/C (second compound 0.0949 µM, first compound 10 µM) of 70.5% and a viability, T/C (second compound 0.3 µM, first compound 0.0316 µM) of 88.8%. For the same molecule, the viability, T/C (second compound 0.3 µM, first compound 0.1 µM) was 102%, the viability, T/C (second compound 0.3 µM, first compound 0.316 µM) was 102% and the viability, T/C (second compound 0.3 µM, first compound 1 µM) was 106%. The viability, T/C (second compound 0.3 µM, first compound 3.16 µM) was 107%, the viability, T/C (second compound 0.3 µM, first compound 10 µM) was 85.7% and the viability, T/C (second compound 0.949 µM, first compound 0.0316 µM) was 102%. For the same molecule, the viability, T/C (second compound 0.949 µM, first compound 0.1 µM) was 91.2%, the viability, T/C (second compound 0.949 µM, first compound 0.316 µM) was 128% and the viability, T/C (second compound 0.949 µM, first compound 1 µM) was 100%. The viability, T/C (second compound 0.949 µM, first compound 3.16 µM) was 94.9%, the viability, T/C (second compound 0.949 µM, first compound 10 µM) was 78.3% and the viability, T/C (second compound 3 µM, first compound 0.0316 µM) was 100%. The viability, T/C (second compound 3 µM, first compound 0.1 µM) was 87.6%, the viability, T/C (second compound 3 µM, first compound 0.316 µM) was 97.9% and the viability, T/C (second compound 3 µM, first compound 1 µM) was 96.3%. It also gave a viability, T/C (second compound 3 µM, first compound 3.16 µM) of 90.4% and a viability, T/C (second compound 3 µM, first compound 10 µM) of 77.9%.
`COc1c(OCCCN2CCOCC2)ccc2c3n(c(=NC(=O)c4cnc(N)nc4)nc12)CCN3` + CNC(C)C(=O)NC1CN(S(=O)(=O)c2cccc(S(=O)(=O)N3CCC4CCC(C(=O)NC(c5ccccc5)c5ccccc5)N4C(=O)C(NC(=O)C(C)NC)C3)c2)CCC2CCC(C(=O)NC(c3ccccc3)c3ccccc3)N2C1=O gave a pIC50 (second compound 0.01 µM) of 7.79, a pIC50 (second compound 0.0316 µM) of 8.03 and a pIC50 (second compound 0.1 µM) of 7.92. The pIC50 (second compound 0.316 µM) was 8.27, the pIC50 (second compound 1 µM) was 8.39 and the viability, T/C (second compound 0.01 µM, first compound 0.00316 µM) was 68.8%. The viability, T/C (second compound 0.01 µM, first compound 0.01 µM) was 60.1%, the viability, T/C (second compound 0.01 µM, first compound 0.0316 µM) was 36.4% and the viability, T/C (second compound 0.01 µM, first compound 0.1 µM) was 12.3%. The viability, T/C (second compound 0.01 µM, first compound 0.316 µM) was 3.69%, the viability, T/C (second compound 0.01 µM, first compound 1 µM) was 1.21% and the viability, T/C (second compound 0.0316 µM, first compound 0.00316 µM) was 54.7%. It also gave a viability, T/C (second compound 0.0316 µM, first compound 0.01 µM) of 50%, a viability, T/C (second compound 0.0316 µM, first compound 0.0316 µM) of 32.9% and a viability, T/C (second compound 0.0316 µM, first compound 0.1 µM) of 12.4%. The viability, T/C (second compound 0.0316 µM, first compound 0.316 µM) was 4.55%, the viability, T/C (second compound 0.0316 µM, first compound 1 µM) was 1.09% and the viability, T/C (second compound 0.1 µM, first compound 0.00316 µM) was 57.1%. The viability, T/C (second compound 0.1 µM, first compound 0.01 µM) was 56.9%, the viability, T/C (second compound 0.1 µM, first compound 0.0316 µM) was 29.9% and the viability, T/C (second compound 0.1 µM, first compound 0.1 µM) was 12.2%. The viability, T/C (second compound 0.1 µM, first compound 0.316 µM) was 3.36%, the viability, T/C (second compound 0.1 µM, first compound 1 µM) was 1.18% and the viability, T/C (second compound 0.316 µM, first compound 0.00316 µM) was 58%. The viability, T/C (second compound 0.316 µM, first compound 0.01 µM) was 39.8%, the viability, T/C (second compound 0.316 µM, first compound 0.0316 µM) was 24.5% and the viability, T/C (second compound 0.316 µM, first compound 0.1 µM) was 8.8%. The viability, T/C (second compound 0.316 µM, first compound 0.316 µM) was 3.2%, the viability, T/C (second compound 0.316 µM, first compound 1 µM) was 1.42% and the viability, T/C (second compound 1 µM, first compound 0.00316 µM) was 52.4%. The viability, T/C (second compound 1 µM, first compound 0.01 µM) was 41.6%, the viability, T/C (second compound 1 µM, first compound 0.0316 µM) was 24.8% and the viability, T/C (second compound 1 µM, first compound 0.1 µM) was 11.3%. For the same molecule, the viability, T/C (second compound 1 µM, first compound 0.316 µM) was 4.7% and the viability, T/C (second compound 1 µM, first compound 1 µM) was 0.9%.

Source: PubChem BioAssay AID1963446 (Molecular Pharmacology Branch, DTP, NCI, 2024)
